Results as given in patent publication US20110064773A1, “PHARMACEUTICAL COMPOSITIONS COMPRISING A THYROID HORMON AND THEIR THERAPEUTIC USE” (UNIVERSITE JOSEPH FOURIER, priority 2007, published 2011).
Entries after “also recorded” stand apart in the source; their conditions may differ.

Legend:
[1] = test system: nuclear receptors of the thyroid hormones, TRα-1 and TRβ-1; conditions: literature statements; cited from earlier work
Wistar rats [2] = experiment: De novo hepatic lipogenesis (stable isotopes); type: in vivo, rat; conditions: rT3 2.5 μg/100 g BW
Source text: To confirm this point, the rate of endogenous triglyceride synthesis by using stable isotopes has been assessed.

Wistar rats [3] = experiment: OGTT in Wistar rats fed a high fat high sucrose diet; type: in vivo, rat; conditions: 8 weeks high fat high sucrose diet, rT3 2.5 μg/100 g, vs placebo
Description: A clinically relevant situation of a nutritionally-induced insulin resistance is known as a high fat high sucrose diet (HF). Therefore, the effects of rT3 on glucose and insulin response to an OGTT test were investigated. Wistar rats were fed a diet containing 45.5% fat (38% lard and 7.5% soy oil) and 34% carbohydrate (25% as sucrose) for 8 weeks. OGTT was performed as described above.

muscle mitochondria = experiment: Rate of muscle mitochondrial oxygen consumption (JO2) of treated Wistar rats; type: in vivo, rat; conditions: 250 μg/kg BW/day, vs placebo
Description: (§1) The major part of the liver and the red part of each quadriceps were rinsed, and chopped into isolation medium (250 mM sucrose, 20 mM Tris-HCl and 1 mM EGTA-Tris, pH 7.4). Nuclei and cell debris were removed by centrifugation at 800 g for 10 min. Mitochondria were then isolated from the supernatant by spinning twice at 8,000 g for 10 minutes. The mitochondrial pellet was resuspended in 0.5 ml of isolation buffer and kept on ice. Mitochondrial protein was measured by the bicinchoninic acid method (Pierce, Rockford, Ill.). The final mitochondrial suspensions were maintained on ice and were used for measurements of oxygen consumption rate.
(§2) The rate of mitochondrial oxygen consumption (JO2) was measured at 30° C. in an incubation chamber with a Clark-type O2 electrode filled with 2 ml of incubation medium (125 mM KCl, 10 mM Pi-Tris, 20 mM Tris-HCl, 0.1 mM EGTA, pH 7.2). All measurements were performed using mitochondria (1.0 or 0.2 mg mitochondrial protein/ml for liver and skeletal muscle) incubated either with various substrates: glutamate/malate (5 mM/2.5 mM) and succinate (5 mM), alone or in combination, palmitoyl carnitine (55 μM) and octanoyl carnitine (100 μM). For each substrate, JO2 was recorded in the presence of the substrate alone (State 2) and following the addition of 1 mM ADP (state 3). Oligomycin (1.25 μg/mg protein) was added to the mitochondrial suspension to determine the non-phosphorylating respiratory rate (state 4). The incubation medium was constantly stirred with a built-in electromagnetic stirrer and bar flea. The efficiency of the mitochondrial oxidative phosphorylation was assessed by the state 3/state 4 ratio which measures the degree of control imposed on oxidation by phosphorylation (respiratory control ratio, RCR).

liver mitochondria = experiment: Rate of liver mitochondrial oxygen consumption (JO2) of treated Wistar rats; type: in vivo, rat; conditions: vs placebo
Description: as §1, §2

[4] = Blood rT3 dosage over 24 hours after administration; type: in vivo, rat; conditions: Wistar rats
Description: Blood rT3 dosage. The rT3 concentration is measured for 24 hours in Wistar rats treated with a high dosage of rT3 by intra-peritoneal injection (IP, square), oral ingestion (per os, triangle) or subcutaneous injection (sc, star). Basal rT3 level is measured in animal treated with placebo (lozenge).
Wistar rats were treated with rT3 hormone by a daily intraperitoneal injection (IP) (25 μg/100 g BW), a daily sub-cutaneous injection (SC) (25 μg/100 g BW), or a per os administration included in the rat food (25 μg/100 g BW). The continuous and constant administration was performed by using a pellet (25 μg/100 g BW).

Wistar rats [5] = experiment: Wistar rats treated with PTU and IOP (deiodinase inhibition, hypothyroid state) with or without rT3; type: in vivo, rat
Description: Thyroid Stimulating Hormone (TSH) and thyroxine (T4) were measured by radioimmunoassay with rat standards (RPA 554 Amersham bioscience, RIA FT4-immunotech, for TSH and T4 respectively).
In order to understand the mode of action of the treatments, Wistar rats were treated with pharmacological products that inhibit the synthesis and deiodination of thyroid hormones PTU and IOP.
Animals (Wistar) were submitted to a treatment by propyl-thiouracile (PTU in the drinking water) and iopanoic acid (IOP one sc-injection weekly) inducing a complete inhibition of all deiodinases (types I, II and III). Such treatment is responsible for the induction of a severe hypothyroid state. In addition this treatment impairs the peripheral metabolism of all thyroid hormones by deiodination. Some rats were also submitted to a sub-cutaneous administration of rT3 (2.5 μg/100 g). Three groups were constituted: controls, PTU+IOP and PTU+IOP+rT3 and duration of the experiment was 3 weeks.

[6] = high dose 250 μg/kg BW/day, various substrates
[7] = PTU+IOP alone vs placebo, or rT3 2.5 μg/100 g added to PTU+IOP
[8] = PTU+IOP alone, or rT3 (2.5 μg/100 g) added to PTU+IOP

SMILES: N[C@@H](Cc1ccc(Oc2cc(I)c(O)c(I)c2)c(I)c1)C(=O)O [rT3, 3′,5′,3-triiodothyronine]
- Binding to the nuclear (TH) receptors [1]: very little affinity
- Endogenous (liver) synthesis of lipids (Wistar rats [2]; day and night, effect maximal during the day): powerful stimulation
- Hepatic lipogenesis, increase (Wistar rats [2]; vs placebo): ~4 fold
- Blood glucose, area under the curve (AUC) after OGTT (Wistar rats [3]): significant lowering
- Blood glucose, change over time of plasma concentration after OGTT (Wistar rats [3]): significant lowering
- Insulin levels, AUC after OGTT (Wistar rats [3]): significantly lower
- Insulin levels, changes over time after OGTT (Wistar rats [3]): significantly lower
- Muscle mitochondrial respiration, non-phosphorylating (state 4) (muscle mitochondria): failed to substantially affect
- Muscle mitochondrial respiration, phosphorylating (state 3) (muscle mitochondria): failed to substantially affect
- Liver mitochondrial respiratory rate, non-phosphorylating (state 4, oligomycin) (liver mitochondria; [6]): much higher as compared to placebo; also recorded: dose-dependent increase
- Liver mitochondrial respiratory rate, phosphorylating (state 3, ADP) (liver mitochondria; [6]): very significant increased respiratory rate; also recorded: dose-dependent increase
- Liver mitochondrial respiratory rate, non-phosphorylating (state 4) (liver mitochondria; low dose 25 μg/kg BW/day): decreased efficiency; also recorded: dose-dependent increase
- Liver mitochondrial respiratory rate, phosphorylating (state 3) (liver mitochondria; low dose 25 μg/kg BW/day): higher maximal respiratory capacity; also recorded: dose-dependent increase
- Circulating rT3 (degradation) ([4]; high dosage, intra-peritoneal injection): rapidly degraded
- Circulating rT3 compared to the injected dose ([4]; intra-peritoneal injection, after 5 hours): five fold decreased
- Circulating rT3 concentration in blood ([4]; per os administration): never allows to obtain in blood a concentration of rT3 similar with the concentration observed after intra-peritoneal injection
- Circulating rT3 concentration in blood ([4]; sub-cutaneous injection): remains substantially the same as the injected concentration
- Circulating rT3 (degradation) ([4]; sub-cutaneous injection, after 24 hours): quasi completely degraded
- Animal mass (body weight) (Wistar rats [5]; 3 weeks, PTU+IOP alone vs controls, or rT3 2.5 μg/100 g sc added to PTU+IOP): enhances the decrease induced by PTU-IOP
- Appetite (food intake) (Wistar rats [5]; 3 weeks, PTU-IOP with or without rT3 2.5 μg/100 g): remains unchanged
- Energy expenditure (EE) (Wistar rats [5]; [7]): enhanced
- Respiratory quotient (RQ) (Wistar rats [5]; [7]): enhanced
- Activity of mGPdH (Wistar rats [5]; [8]): stimulates
- Brown adipose tissue mass (Wistar rats [5]; [8]): also enhanced
- Mitochondrial state 3 respiratory rate with GM, S and GMS (Wistar rats [5]; [8]): corrected the effect of PTU+IOP
